The values that follow come from article PMC6888386, “Identification of Novel 1,3,5-Triphenylbenzene Derivative Compounds as Inhibitors of Hen Lysozyme Amyloid Fibril Formation” (International Journal of Molecular Sciences, 2019).

In data set [1] the target is T1, hen egg white lysozyme (HEWL) (Gallus gallus, UniProt P00698).
T1 construct: Hen egg white lysozyme (HEWL), thioflavin T (ThT), and Congo red (CR) were purchased from Sigma-Aldrich; purchased Sigma-Aldrich (St. Louis, MO, USA); host or cells: hen egg white (per the product name)
Put plainly: Congo red (CR) assay of HEWL aggregation. Type of data set: biochemical. The note with it: 0.32 µM compound, HEWL pre-incubated 48 h under aggregating conditions. On the procedure:
Aliquots of the same samples used for ThT experiments were also used to carry out the CR assays. […] The higher CR absorbance obtained in the presence of HEWL is likely to originate from the presence of protein aggregates that scatter light, whereas the red shift of the peak from 490 to 520–540 nm indicates the presence of β-sheet containing aggregates.
(§1) HEWL concentration was determined by optical absorption at 280 nm (ε280 = 2.65 L·g^−1·cm^−1). HEWL was dissolved to a concentration of 2 mg/mL (140 µM) in 50 mM glycine buffer, pH 2.5, centrifuged for 10 min at 13,000 rpm, then incubated at 57 °C for the specified time lengths in the absence or presence of the indicated concentrations of compounds 1–6, under gentle stirring at 250 rpm by a Teflon magnetic bar.
Since compounds 1–6 have optical absorption spectra partially overlapped to that of CR, all protein samples were centrifuged at 10,000 rpm and the pellets resuspended in 50 mM glycine buffer, pH 2.5, at room temperature. A mother solution of 20 mM CR was prepared in 5 mM sodium phosphate buffer, 150 mM NaCl, pH 7.4, it was then filtered using a center-glass N4 filter and stored at 4 °C, until it was placed at room temperature immediately before use. At different time points during protein aggregation, a 60 μL aliquot of resuspended protein solution was mixed with 440 μL of CR solution. Optical absorption spectra were acquired after 2–3 min equilibration at 25 °C, using a Cecil 7200 UV–visible spectrophotometer (Aquarius, Cambridge, England) and a 1 cm path-length cell.

The test system of data set [2] is caspase-3 activity in SH-SY5Y cells. Put plainly: Caspase-3 activity after exposure to HEWL aggregates. The settings on record: 24 h, 2 µM HEWL aggregates formed in the presence of 0.32 µM compound. Type of data set: cell-based, human. On the procedure:
(§2) We then assessed the cytotoxicity of HEWL aggregates, formed in the absence or presence of compounds 1–6, according to the aggregation protocol described for the ThT experiments. HEWL aggregates were collected by centrifugation, dried under N2, dissolved in cell culture medium, and added to SH-SY5Y human neuroblastoma cells at a concentration of 2 µM (monomer equivalents). The ability of the resulting aggregates to cause cellular dysfunction was assessed by performing the MTT reduction inhibition assay, a widely used indicator of mitochondrial dysfunction. […] Very similar results were obtained by measuring the activity of caspase-3, a well-recognized apoptotic marker. A significant activation of caspase-3 (320 ± 12%, as compared to untreated cells) was observed following treatment for 24 h of SH-SY5Y cells with HEWL aggregates at 2 µM (Figure 7B).
(§3) Authenticated human neuroblastoma SH-SY5Y cells were purchased from American Type Culture Collection (ATCC) (Manassas, VA, USA) and they tested negative for mycoplasma contaminations. SH-SY5Y cells were cultured in Dulbecco’s modified Eagle’s medium (DMEM), F-12 Ham with 25 mM HEPES and NaHCO3 (1:1) supplemented with 10% fetal bovine serum (FBS), 1.0 mM glutamine and 1.0% penicillin and streptomycin solution. Cells were maintained in a 5.0% CO2 humidified atmosphere at 37 °C and grown until 80% confluence for a maximum of 20 passages.
HEWL aggregates were formed in the absence or in the presence of 0.32 µM of compounds 1–6 as described in the previous section and then added to the cell culture medium of SH-SY5Y cells seeded on glass coverslips for 24 h at 2 μM (monomer equivalents). Caspase-3 activity was then analyzed by using FAM FLICA^TM caspases 3 & 7 solution (caspase 3 & 7 FLICA kit FAM-DEVDFMK, Immunochemistry Technologies, LLC, Bloomington, MN, USA). Cell fluorescence was analyzed by the TCS SP8 scanning confocal microscopy system (Leica Microsystems, Mannheim, Germany) equipped with an argon laser source, as previously reported. A series of 1.0 μm thick optical sections (1024 × 1024 pixels) was taken through the cell depth for each sample using a Leica Plan Apo 63 × oil immersion objective for fluorescence measurement at 488 nm. The confocal microscope was set at optimal acquisition conditions, e.g., pinhole diameters, detector gain, and laser powers. Settings were maintained constant for each analysis.

The target of data set [3] is T1, hen egg white lysozyme (HEWL). Put plainly: FTIR spectroscopy of HEWL aggregates. The format is biochemical. The settings on record: 0.32 µM compound, 48 h, resuspended in D2O. On the procedure:
New samples of HEWL aggregates with or without compounds 1–6 at a concentration of 0.32 µM were prepared, under the same conditions as those used for ThT and CR experiments, centrifuged after 48 h to collect the aggregates, resuspended at high concentration in D2O and analyzed with FTIR spectroscopy, to determine the effects of the six compounds on the secondary structure of the HEWL aggregates. […] Another peak is present at ca. 1650 cm^−1 attributable to either unordered or α-helical secondary structure.
Samples were incubated for 48 h to promote aggregation as described above in the presence of 0.32 µM compounds 1–6, centrifuged at 13,000× g for 10 min and resuspended in D2O to a final volume of 72.8 μL, to reach a final concentration of 27.8 mg/mL. For each sample, 40 μL was deposited onto an Omni-Cell transmission cell with a 25 μm spacer (Specac, Orpington, UK), and Fourier-transform infrared (FTIR) spectra were recorded using a FTS-40 FTIR spectrometer (Bio-Rad, Hercules, CA, USA) purged with a continuous flow of dry air. Sixty-four interferograms were accumulated in each case at a spectral resolution of 1 cm^−1. The FTIR absorbance spectra were blank-subtracted and baseline-corrected to reveal the amide I region (1600–1700 cm^−1). […]

Data set [4] has the same target. The data set is described as follows: ThT fluorescence assay of HEWL amyloid fibril formation. The format is biochemical. The note with it: 48 h. On the procedure: The inhibition potential of the six compounds was determined using the ThT fluorescence assay to measure the amount of amyloid aggregates after the addition of various concentrations of each compound ranging from 0.03 to 2.6 µM. Aggregation of HEWL was induced by incubating the protein for 48 h at a concentration of 2 mg/mL (140 µM) in 50 mM glycine buffer, pH 2.5, and 57 °C, while stirred gently by magnetic bars (rpm 250), in the absence or presence of 0.03–2.6 µM compounds 1–6. […] The IC50 values of the compounds, corresponding to the concentration at which the inhibitory effect is half of the maximum effect, were determined (Figure 2).
as §1
A mother solution of 2.5 mM ThT was prepared in 10 mM sodium phosphate buffer, 150 mM NaCl, pH 7.0. It was then passed through a 0.45 μm filter paper and stored at 4 °C until it was placed at room temperature immediately before use. At regular time intervals, a 10 µL aliquot of protein solution was mixed with 990 μL of ThT solution in a 10 × 10 mm quartz cuvette and the fluorescence emission spectra were recorded at room temperature using a Cary Eclipse VARIAN fluorescence spectrophotometer (Varian, Mulgrave, Australia) and an excitation wavelength of 440 nm.

The test system of data set [5] is SH-SY5Y human neuroblastoma cells. Put plainly: MTT reduction test with HEWL aggregates. Type of data set: cell-based. The settings on record: 24 h, 2 µM (monomer equivalents) HEWL aggregates formed in the presence of 0.32 µM compound. On the procedure: as §2, §3
HEWL samples pre-incubated for 48 h under aggregating conditions in the absence or presence of 0.32 µM compounds 1–6 were centrifuged and the pellets were dried under N2 to remove any compounds and DMSO, dissolved in cell culture medium at a final HEWL concentration of 2 μM (monomer equivalents), and added to SH-SY5Y cells seeded in 96-well plates for 24 h at 37 °C. The cell medium was then removed and the MTT solution (0.5 mg/mL in RPMI) was added to the cells for 4 h. The medium was then aspirated, and the formazan product was solubilized with cell lysis buffer (20% SDS, 50% N, N-dimethylformamide, pH 4.7) for 1 h, as previously described.

Another data set has as its system HEWL. Further details: method as in PMID 27597412. The note with it: HEWL amyloid fibril formation; read-out: IC50 value of a representative bis(indolyl)phenylmethane; cited from earlier work.

T1 sequence (P00698 19-147): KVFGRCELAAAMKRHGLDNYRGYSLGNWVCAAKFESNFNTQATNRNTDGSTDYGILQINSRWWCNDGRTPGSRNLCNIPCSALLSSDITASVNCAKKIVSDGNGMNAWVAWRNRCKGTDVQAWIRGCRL

One may read the melting point as the temperature, or range, at which the solid turns liquid. By IC50 is commonly meant the concentration that gives 50% inhibition. The compound `Fc1ccc(-c2cc(-c3ccc(F)cc3)cc(-c3ccc(F)cc3)c2)cc1` [Compound 2, 1,3,5-tris(4-fluorophenyl)benzene] registered a melting point of 238 to 240 °C. Moreover, the “CR absorbance relative to that measured in the absence of the compounds” value in data set [1] is “lower”. Also, in data set [2], the “Prevention of the apoptotic response (caspase-3 activation) induced by aggregates” value is listed as “significantly prevented”. In addition, the “Change of secondary structure of HEWL aggregates (amide I, loss of β-sheet)” value in data set [3] is “most remarkable change”. Also, the “Relative efficacy as inhibitor in terms of IC50 value” in data set [4] (HEWL 140 µM, pH 2.5, 57 °C) is given as “best inhibitor”. In data set [4] (HEWL 2 mg/mL (140 µM), 50 mM glycine buffer pH 2.5, 57 °C, stirring 250 rpm, compound 0.03-2.6 µM, Figure 2, read-out: IC50 of prevention of HEWL amyloid fibril formation), the IC50 is 0.05 µM. The “MTT reduction relative to untreated cells” value in data set [5] is on record as 96.2 ± 3.2%.
Turning to bis(indolyl)phenylmethane, the IC50 in the data set with HEWL was 12.3 ± 1 µM.
